{"source": "the NIST ThermoML archive (doi:10.1016/j.jct.2014.03.029)", "key": {"[1]": {"test": "Molar enthalpy of transition or fusion", "conditions": "Crystal; DSC"}, "[2]": {"conditions": "Crystal; DTA"}, "[3]": {"test": "molar heat capacity at constant pressure", "conditions": "100 kPa, Liquid, Small sample (50 mg) DSC"}, "[4]": {"test": "molar heat capacity at constant pressure; xn = mol fraction of the nth substance listed", "conditions": "100 kPa, Liquid, Small sample (50 mg) DSC"}}, "note": "Numbers after ± are expanded uncertainties.", "data": [{"compound": "c1ccc(-c2ccccc2)cc1", "note": "[biphenyl]", "values": [{"measurement": "Molar enthalpy of transition or fusion", "setting": "[1]", "result": "4.43 ± 0.129", "unit": "kcal/mol"}, {"measurement": "Normal melting temperature", "setting": "[2]", "result": "69.0 ± 0.7", "unit": "°C"}, {"measurement": "molar heat capacity at constant pressure", "setting": "[3]; 353.15 K", "result": "271.56 ± 17", "unit": "J/K/mol"}, {"measurement": "molar heat capacity at constant pressure", "setting": "[3]; 373.15 K", "result": "280.81 ± 17", "unit": "J/K/mol"}]}, {"compound": "c1ccc(-c2ccccc2)cc1", "note": "[biphenyl] + c1ccc(Oc2ccccc2)cc1", "values": [{"measurement": "molar heat capacity at constant pressure", "setting": "[4]; 353.15 K, x2 = 0", "result": "271.56 ± 17", "unit": "J/K/mol"}, {"measurement": "molar heat capacity at constant pressure", "setting": "[4]; 373.15 K, x2 = 0", "result": "280.81 ± 17", "unit": "J/K/mol"}]}, {"compound": "c1ccc(Oc2ccccc2)cc1", "note": "[diphenyl ether]", "values": [{"measurement": "Molar enthalpy of transition or fusion", "setting": "[1]", "result": "4.07 ± 0.131", "unit": "kcal/mol"}, {"measurement": "Normal melting temperature", "setting": "[2]", "result": "26.98 ± 0.7", "unit": "°C"}, {"measurement": "molar heat capacity at constant pressure", "setting": "[3]; 313.15 K", "result": "261.61 ± 16", "unit": "J/K/mol"}, {"measurement": "molar heat capacity at constant pressure", "setting": "[3]; 333.15 K", "result": "272.33 ± 17", "unit": "J/K/mol"}, {"measurement": "molar heat capacity at constant pressure", "setting": "[3]; 353.15 K", "result": "281.69 ± 17", "unit": "J/K/mol"}, {"measurement": "molar heat capacity at constant pressure", "setting": "[3]; 373.15 K", "result": "290.88 ± 18", "unit": "J/K/mol"}]}, {"compound": "c1ccc(Oc2ccccc2)cc1", "note": "[diphenyl ether] + c1ccc(-c2ccccc2)cc1", "values": [{"measurement": "molar heat capacity at constant pressure", "setting": "[4]; 293.15 K, x1 = 0.705", "result": "263.62 ± 16", "unit": "J/K/mol"}, {"measurement": "molar heat capacity at constant pressure", "setting": "[4]; 313.15 K, x1 = 0.55", "result": "271.57 ± 17", "unit": "J/K/mol"}, {"measurement": "molar heat capacity at constant pressure", "setting": "[4]; 313.15 K, x1 = 0.705", "result": "271.4 ± 17", "unit": "J/K/mol"}, {"measurement": "molar heat capacity at constant pressure", "setting": "[4]; 313.15 K, x1 = 0.85", "result": "267.65 ± 16", "unit": "J/K/mol"}, {"measurement": "molar heat capacity at constant pressure", "setting": "[4]; 313.15 K, x1 = 0.95", "result": "262.24 ± 16", "unit": "J/K/mol"}, {"measurement": "molar heat capacity at constant pressure", "setting": "[4]; 313.15 K, x1 = 1", "result": "261.61 ± 16", "unit": "J/K/mol"}, {"measurement": "molar heat capacity at constant pressure", "setting": "[4]; 333.15 K, x1 = 0.2499", "result": "270.37 ± 17", "unit": "J/K/mol"}, {"measurement": "molar heat capacity at constant pressure", "setting": "[4]; 333.15 K, x1 = 0.4", "result": "273.51 ± 17", "unit": "J/K/mol"}, {"measurement": "molar heat capacity at constant pressure", "setting": "[4]; 333.15 K, x1 = 0.55", "result": "278.25 ± 17", "unit": "J/K/mol"}, {"measurement": "molar heat capacity at constant pressure", "setting": "[4]; 333.15 K, x1 = 0.705", "result": "279.18 ± 17", "unit": "J/K/mol"}, {"measurement": "molar heat capacity at constant pressure", "setting": "[4]; 333.15 K, x1 = 0.85", "result": "276.55 ± 17", "unit": "J/K/mol"}, {"measurement": "molar heat capacity at constant pressure", "setting": "[4]; 333.15 K, x1 = 0.95", "result": "272.24 ± 17", "unit": "J/K/mol"}, {"measurement": "molar heat capacity at constant pressure", "setting": "[4]; 333.15 K, x1 = 1", "result": "272.33 ± 17", "unit": "J/K/mol"}, {"measurement": "molar heat capacity at constant pressure", "setting": "[4]; 353.15 K, x1 = 0.05", "result": "272.81 ± 17", "unit": "J/K/mol"}, {"measurement": "molar heat capacity at constant pressure", "setting": "[4]; 353.15 K, x1 = 0.15", "result": "277.2 ± 17", "unit": "J/K/mol"}, {"measurement": "molar heat capacity at constant pressure", "setting": "[4]; 353.15 K, x1 = 0.2499", "result": "279.39 ± 17", "unit": "J/K/mol"}, {"measurement": "molar heat capacity at constant pressure", "setting": "[4]; 353.15 K, x1 = 0.4", "result": "282.35 ± 17", "unit": "J/K/mol"}, {"measurement": "molar heat capacity at constant pressure", "setting": "[4]; 353.15 K, x1 = 0.55", "result": "285.59 ± 18", "unit": "J/K/mol"}, {"measurement": "molar heat capacity at constant pressure", "setting": "[4]; 353.15 K, x1 = 0.705", "result": "286.13 ± 18", "unit": "J/K/mol"}, {"measurement": "molar heat capacity at constant pressure", "setting": "[4]; 353.15 K, x1 = 0.85", "result": "285.61 ± 18", "unit": "J/K/mol"}, {"measurement": "molar heat capacity at constant pressure", "setting": "[4]; 353.15 K, x1 = 0.95", "result": "281.72 ± 17", "unit": "J/K/mol"}, {"measurement": "molar heat capacity at constant pressure", "setting": "[4]; 353.15 K, x1 = 1", "result": "281.69 ± 17", "unit": "J/K/mol"}, {"measurement": "molar heat capacity at constant pressure", "setting": "[4]; 373.15 K, x1 = 0.05", "result": "282.42 ± 17", "unit": "J/K/mol"}, {"measurement": "molar heat capacity at constant pressure", "setting": "[4]; 373.15 K, x1 = 0.15", "result": "285.5 ± 18", "unit": "J/K/mol"}, {"measurement": "molar heat capacity at constant pressure", "setting": "[4]; 373.15 K, x1 = 0.2499", "result": "286.99 ± 18", "unit": "J/K/mol"}, {"measurement": "molar heat capacity at constant pressure", "setting": "[4]; 373.15 K, x1 = 0.4", "result": "290.38 ± 18", "unit": "J/K/mol"}, {"measurement": "molar heat capacity at constant pressure", "setting": "[4]; 373.15 K, x1 = 0.55", "result": "292.44 ± 18", "unit": "J/K/mol"}, {"measurement": "molar heat capacity at constant pressure", "setting": "[4]; 373.15 K, x1 = 0.705", "result": "293.24 ± 18", "unit": "J/K/mol"}, {"measurement": "molar heat capacity at constant pressure", "setting": "[4]; 373.15 K, x1 = 0.85", "result": "294.5 ± 18", "unit": "J/K/mol"}, {"measurement": "molar heat capacity at constant pressure", "setting": "[4]; 373.15 K, x1 = 0.95", "result": "290.87 ± 18", "unit": "J/K/mol"}, {"measurement": "molar heat capacity at constant pressure", "setting": "[4]; 373.15 K, x1 = 1", "result": "290.88 ± 18", "unit": "J/K/mol"}]}]}
